These are literature values, as cited in patent US20090156647A1, “Method for maintaining physiological pH levels during intensive physical exercise” (IOVATE T. & P. INC., priority 2007, published 2009).

Each structure is given as a SMILES string.

For the series the following is noted: about 1.5 g of HICA daily after intense exercise for 42 days.

In the case of `CC(C)CC(O)C(=O)O` (centres unmarked) [HICA, 2-hydroxy-4-methylvaleric acid], the “delayed onset muscular soreness (DOMS) experienced by subjects” value is listed as “little to no DOMS” and the “total lean soft tissue mass” value is “statistically significant increase”.
